Measured values: article PMC3128435 (Journal of physics. Condensed matter : an Institute of …, 2010)

Target: maltoporin (Escherichia coli, UniProt P02943)
Test: single-channel current blockage in planar lipid bilayer
Type: binding
Details: 1.0 M NaCl, pH 7, 150 mV, 23 °C

maltoporin, sequence (P02943 26-446): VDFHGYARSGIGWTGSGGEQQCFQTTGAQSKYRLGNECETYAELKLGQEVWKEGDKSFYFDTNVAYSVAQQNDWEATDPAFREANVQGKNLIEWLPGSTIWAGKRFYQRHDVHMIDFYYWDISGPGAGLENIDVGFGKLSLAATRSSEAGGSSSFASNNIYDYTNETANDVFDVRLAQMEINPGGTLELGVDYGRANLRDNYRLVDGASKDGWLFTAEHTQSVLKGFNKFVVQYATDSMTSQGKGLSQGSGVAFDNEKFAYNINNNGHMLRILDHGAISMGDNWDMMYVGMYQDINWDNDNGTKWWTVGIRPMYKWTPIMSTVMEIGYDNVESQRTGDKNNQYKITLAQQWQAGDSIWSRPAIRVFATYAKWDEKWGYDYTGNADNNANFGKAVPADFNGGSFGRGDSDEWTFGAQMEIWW

Row | average lifetime of the channel complex (cis-side addition) | average lifetime of the channel complex | Compound
1 | 7.3 ± 0.5 ms | – | OC[C@H]1O[C@@H]2O[C@H]3[C@H](O)[C@@H](O)[C@@H](O[C@H]4[C@H](O)[C@@H](O)[C@@H](O[C@H]5[C@H](O)[C@@H](O)[C@@H](O[C@H]6[C@H](O)[C@@H](O)[C@@H](O[C@H]7[C@H](O)[C@@H](O)[C@@H](O[C@H]8[C@H](O)[C@@H](O)[C@@H](O[C@H]1[C@H](O)[C@H]2O)O[C@@H]8CO)O[C@@H]7CO)O[C@@H]6CO)O[C@@H]5CO)O[C@@H]4CO)O[C@@H]3CO [CD, β-cyclodextrin]
2 | – | 2.0 ± 0.3 ms | OC[C@H]1O[C@H](O[C@H]2[C@H](O)[C@@H](O)[C@@H](O[C@H]3[C@H](O)[C@@H](O)[C@@H](O[C@H]4[C@H](O)[C@@H](O)[C@@H](O[C@H]5[C@H](O)[C@@H](O)[C@@H](O[C@H]6[C@H](O)[C@@H](O)[C@@H](O[C@H]7[C@H](O)[C@@H](O)C(O)O[C@@H]7CO)O[C@@H]6CO)O[C@@H]5CO)O[C@@H]4CO)O[C@@H]3CO)O[C@@H]2CO)[C@H](O)[C@@H](O)[C@@H]1O (some centres unmarked) [m7, maltoheptaose]
